Assay: molar heat capacity at constant pressure; xn = mol fraction of the nth substance listed
Conditions: 101 kPa, Crystal, Small (less than 1 g) adiabatic calorimetry, x1 = 0.7

[Ba+2].[F-].[F-] [barium difluoride] + [F][La]([F])[F]
Conditions	molar heat capacity at constant pressure [J/K/mol]
10 K	0.3566
15 K	1.198
20 K	2.757
25 K	4.992
30 K	7.683
35 K	10.6
40 K	13.58
45 K	16.57
50 K	19.51
60 K	25.25
70 K	30.71
80 K	35.83
90 K	40.57
100 K	44.9
110 K	48.81
120 K	52.33
130 K	55.47
140 K	58.27
150 K	60.76
160 K	62.98
170 K	64.95
180 K	66.7
190 K	68.28
200 K	69.68
210 K	70.94
220 K	72.07
230 K	73.09
240 K	74.02
250 K	74.85
260 K	75.6
270 K	76.29
280 K	76.91
290 K	77.48
298.15 K	77.91
300 K	78.01
310 K	78.48
320 K	78.93
330 K	79.33
340 K	79.7
